Here are results for 20 compounds from patent US8486965B2, “Pyrrolo[2,3-b]pyridine derivative and use thereof for treatment of cancer” (Takeda Pharmaceutical Company Limited, priority 2009, dated 2013).

The subject of this assay is Hedgehog signal transduction system (Smo). Description: Gli reporter luciferase assay in NIH-3T3/Gli reporter cells stimulated with mouse Shh-N end fragment. Type of assay: cell-based. Conditions: NIH3T3; 1 μM compound; NIH-3T3/Gli reporter cells with mouse Shh-N end fragment culture supernatant, 48 hr; luciferase activity, control without compound as 100; read-out: inhibition rate (%) at 1 μM. From the text:
Inhibition of the Hedgehog signal transduction system can be measured, for example, by quantifying a decrease in the expression level of a reporter gene connected to the downstream of the Gli binding site based on the fluorescence intensity according to the following Experimental Example 1. Alternatively, it can be measured by quantifying the expression of Gli-1 mRNA in a cell extract by quantitative PCR method and the like. A compound that inhibits Hedgehog signal targets Smo, which can be confirmed, for example, by binding fluorescence-labeled Cyclopamine and a test compound to cells expressing Smo, measuring the fluorescence level of the cell, and comparing the value with that without addition of a test compound to find a decrease.
Gli reporter plasmid was constructed by inserting 8×Gli-binding site and chicken δ-crystalline promoter into the upstream of luc+ of pGL3 (Promega).
prepared in reference to the base sequence described in GenBank accession No.; X02187, and chicken genome DNA (Clontech) as a template. PCR reaction was performed using Pfu Turbo (Stratagene) and following the attached protocol. The obtained 108 bp fragment was digested with restriction enzymes BglII and HindIII, and inserted into BglII-HindIII site of pGL3 to give plasmid pGL3/δ-cry promoter.
As 8× Gli-binding site, a sequence containing eight 9-bp Gli bound consensus sequences (GACCACCCA) described in Yoon et al., J. Biol. Chem., vol. 273, pages 3496-3501 (1998) was prepared from synthetic DNA. That is, two synthetic DNAs,
were heat treated at 95° C. for 2 minutes, and incubated at 37° C. for 1 hr for annealing to give a double stranded DNA of the above-mentioned two synthetic DNAs. The obtained double stranded DNA was digested with restriction enzymes BglII and KpnI, and the obtained DNA fragment was inserted into BglII-KpnI site of pGL3/δ-cry promoter to construct plasmid pGL3/δ-cry promoter, 8× Gli binding site, i.e., Gli reporter plasmid. 2. Construction of Plasmid for Expression of Mouse Shh-N End Fragment
As a material for construction of plasmid for Shh-N end fragment expression, mouse Shh cDNA was cloned at first.
The mouse Shh cDNA was cloned by Nested PCR method using mouse 11-day fetus cDNA (Clontech) as a template. The primer sequence was prepared in reference to the base sequence described in GenBank accession No.; NM_009170.
Using the mouse Shh cDNA sequence obtained as mentioned above as a template, a partial cDNA sequence wherein stop codon (TGA) was added to 3′-terminal of cDNA sequence encoding 1st to 198th amino acid sequence of mouse Shh was obtained by PCR method. As the primer set,
In the manner mentioned above, a plasmid for mouse Shh-N end fragment expression, pcDNA3.1/mShh-N, was constructed.
HEK293 cells were grown in D-MEM medium (Invitrogen) containing 10% fetal bovine serum in a 10 cm dish and pcDNA3.1/mShh-N was introduced into the cells using FuGENE6 (Roche Applied Science). Thereafter, the HEK293 cells were cultured in a carbon dioxide gas incubator at 37° C. for 24 hours, and the medium was exchanged with D-MEM medium (Invitrogen) containing 2% fetal bovine serum. After culturing for 48 hr, culture supernatant containing recombinant type mouse Shh-N end fragment was obtained by filtration using a filter ([…]).
Using D-MEM (Invitrogen) containing 10% fetal bovine serum, expression plasmid pcDNA3:1 and Gli reporter plasmid (pGL3/δ-cry promoter, 8× Gli binding site) produced by the method of Experimental Example 1 were introduced into NIH-3T3 cells grown in a 10 cm dish by the use of FuGENE6 (Roche Applied Science).
After culture for 24 hr, the cells were recovered, suspended in D-MEM medium containing 10% fetal bovine serum and supplemented with Geneticin (Life Technologies Oriental, Inc.) to a final concentration of 500 μg/ml, diluted to 10^4 cells/ml, plated on a 96 well plate, and cultured in a carbon dioxide gas incubator at 37° C. to give Geneticin resistant transformed cell line. […]

Turning to `CCc1cc2c(nc1NC(=O)c1ccccc1)c(OC(C)C)c(C(=O)NC1CCN(C(=O)CO)CC1)n2C` [Example 130, 6-ethyl-N-[1-(hydroxyacetyl)piperidin-4-yl]-1-methyl-3-(1-methylethoxy)-5-[(phenylcarbonyl)amino]-1H-pyrrolo[3,2-b]pyridine-2-carboxamide], the inhibition at 1 µM came to 84%. Take `CCc1cc2c(nc1-c1ccccc1)c(OC(C)C)c(C(=O)NC1CCN(C(=O)CO)CC1)n2C` [Example 131, 6-ethyl-N-[1-(hydroxyacetyl)piperidin-4-yl]-1-methyl-3-(1-methylethoxy)-5-phenyl-1H-pyrrolo[3,2-b]pyridine-2-carboxamide]: the inhibition at 1 µM was determined as 82%. Then `CCc1cc2c(nc1-c1ccc(F)cc1)c(OC(C)C)c(C(=O)NC1CCN(C(=O)CO)CC1)n2C` [Example 132, 6-ethyl-5-(4-fluorophenyl)-N-[1-(hydroxyacetyl)piperidin-4-yl]-1-methyl-3-(1-methylethoxy)-1H-pyrrolo[3,2-b]pyridine-2-carboxamide], with 86%; and `CCc1cc2c(nc1NC(=O)c1cccs1)c(OC(C)C)c(C(=O)NC1CCN(C(=O)CO)CC1)n2C` [Example 133, 6-ethyl-N-[1-(hydroxyacetyl)piperidin-4-yl]-1-methyl-3-(1-methylethoxy)-5-[(thiophen-2-ylcarbonyl)amino]-1H-pyrrolo[3,2-b]pyridine-2-carboxamide], with 90%; and `Cc1cc2c(nc1-c1ccccc1)c(OCC(F)(F)F)c(C(=O)NC1CCN(C(=O)CO)CC1)n2C` [Example 136, N-[1-(hydroxyacetyl)piperidin-4-yl]-1,6-dimethyl-5-phenyl-3-(2,2,2-trifluoroethoxy)-1H-pyrrolo[3,2-b]pyridine-2-carboxamide], with 95%. In the case of `Cc1nc2c(nc1-c1ccccc1)c(OC(C)C)c(C(=O)NC1CCN(C(=O)CO)CC1)n2C` [Example 143, N-[1-(hydroxyacetyl)piperidin-4-yl]-3,5-dimethyl-7-(1-methylethoxy)-2-phenyl-5H-pyrrolo[2,3-b]pyrazine-6-carboxamide] it was 96%; in that of `CCc1nc2c(nc1-c1ccccc1)c(OCC(F)(F)F)c(C(=O)NC1CCN(C(=O)CO)CC1)n2C` [Example 144, 3-ethyl-N-[1-(hydroxyacetyl)piperidin-4-yl]-5-methyl-2-phenyl-7-(2,2,2-trifluoroethoxy)-5H-pyrrolo[2,3-b]pyrazine-6-carboxamide], 98%; in that of `Cc1nc2c(nc1NC(=O)c1ccccc1)c(OCC(F)(F)F)c(C(=O)NC1CCN(C(=O)CO)CC1)n2C` [Example 145, N-[1-(hydroxyacetyl)piperidin-4-yl]-3,5-dimethyl-2-[(phenylcarbonyl)amino]-7-(2,2,2-trifluoroethoxy)-5H-pyrrolo[2,3-b]pyrazine-6-carboxamide], 98%. Then `CCc1cc2c(cc1NC(=O)c1ccccc1)c(OCC(F)(F)F)c(C(=O)NC1CCN(C(=O)CO)CC1)n2C` [Example 146, 6-ethyl-N-[1-(hydroxyacetyl)piperidin-4-yl]-1-methyl-5-[(phenylcarbonyl)amino]-3-(2,2,2-trifluoroethoxy)-1H-indole-2-carboxamide], with 90%.

As to `CCc1cc2c(cc1NC(=O)c1ccsc1)c(OCC(F)(F)F)c(C(=O)NC1CCN(C(=O)CO)CC1)n2C` [Example 147, 6-ethyl-N-[1-(hydroxyacetyl)piperidin-4-yl]-1-methyl-5-[(thiophen-3-ylcarbonyl)amino]-3-(2,2,2-trifluoroethoxy)-1H-indole-2-carboxamide], the inhibition at 1 µM came out at 91%.

Regarding `CCc1cc2c(cc1NC(=O)c1ccsc1)c(OC(C)C)c(C(=O)NC1CCN(C(=O)CO)CC1)n2C` [Example 148, 6-ethyl-N-[1-(hydroxyacetyl)piperidin-4-yl]-1-methyl-3-(1-methylethoxy)-5-[(thiophen-3-ylcarbonyl)amino]-1H-indole-2-carboxamide], the inhibition at 1 µM came to 98%. In the case of `CCc1cc2sc(C(=O)NC3CCN(C(=O)CO)CC3)c(OCC(F)(F)F)c2cc1NC(=O)c1ccccc1` [Example 149, 6-ethyl-N-[1-(hydroxyacetyl)piperidin-4-yl]-5-[(phenylcarbonyl)amino]-3-(2,2,2-trifluoroethoxy)-1-benzothiophene-2-carboxamide] it was 85%; in that of `CCc1cc2sc(C(=O)NC3CCN(C(=O)CO)CC3)c(OCC(F)(F)F)c2cc1NC(=O)c1ccsc1` [Example 150, 6-ethyl-N-[1-(hydroxyacetyl)piperidin-4-yl]-5-[(thiophen-3-ylcarbonyl)amino]-3-(2,2,2-trifluoroethoxy)-1-benzothiophene-2-carboxamide], 89%. In the case of `CCc1cc2sc(C(=O)NC3CCN(C(=O)CO)CC3)c(OC(C)C)c2cc1NC(=O)c1ccccc1` [Example 151, 6-ethyl-N-[1-(hydroxyacetyl)piperidin-4-yl]-3-(1-methylethoxy)-5-[(phenylcarbonyl)amino]-1-benzothiophene-2-carboxamide] it was 98%.

`CCc1cc2sc(C(=O)NC3CCN(C(=O)CO)CC3)c(OC(C)C)c2cc1NC(=O)c1ccsc1` [Example 152, 6-ethyl-N-[1-(hydroxyacetyl)piperidin-4-yl]-3-(1-methylethoxy)-5-[(thiophen-3-ylcarbonyl)amino]-1-benzothiophene-2-carboxamide]: the inhibition at 1 µM turned out to be 97%.

With `CCc1cc2sc(C(=O)NC3CCN(C(=O)CO)CC3)c(OC(C)C)c2cc1NC(=O)c1cccs1` [Example 153, 6-ethyl-N-[1-(hydroxyacetyl)piperidin-4-yl]-3-(1-methylethoxy)-5-[(thiophen-2-ylcarbonyl)amino]-1-benzothiophene-2-carboxamide], the inhibition at 1 µM is 97%. In the case of `CCc1cc2sc(C(=O)NC3CCN(C(=O)CO)CC3)c(OC(C)C)c2cc1NC(=O)c1ccc(F)cc1` [Example 154, 6-ethyl-5-{[(4-fluorophenyl)carbonyl]amino}-N-[1-(hydroxyacetyl)piperidin-4-yl]-3-(1-methylethoxy)-1-benzothiophene-2-carboxamide] it was 97%; in that of `Cc1nc2c(cc1NC(=O)c1ccccc1)c(OC(C)C)c(C(=O)NC1CCN(C(=O)CO)CC1)n2C` [Example 155, N-[1-(hydroxyacetyl)piperidin-4-yl]-1,6-dimethyl-3-(1-methylethoxy)-5-[(phenylcarbonyl)amino]-1H-pyrrolo[2,3-b]pyridine-2-carboxamide], 99%. For the compound `CCc1nc2c(nc1NC(=O)c1ccccc1)c(OCC(F)(F)F)c(C(=O)NC1CCN(C(=O)CO)CC1)n2C` [Example 160, 3-ethyl-N-[1-(hydroxyacetyl)piperidin-4-yl]-5-methyl-2-[(phenylcarbonyl)amino]-7-(2,2,2-trifluoroethoxy)-5H-pyrrolo[2,3-b]pyrazine-6-carboxamide], the inhibition at 1 µM worked out at 99%. In the case of `CCc1nc2c(nc1NC(=O)c1ccc(F)cc1)c(OC(C)C)c(C(=O)NC1CCN(C(=O)CO)CC1)n2C` [Example 162, 3-ethyl-2-{[(4-fluorophenyl)carbonyl]amino}-N-[1-(hydroxyacetyl)piperidin-4-yl]-5-methyl-7-(1-methylethoxy)-5H-pyrrolo[2,3-b]pyrazine-6-carboxamide] it was 100%.

Broadly, the inhibition is the change of the read-out against control, counted positive when it falls.
